Measurements reported in ChEMBL document CHEMBL1955863, “Intramolecular hydrogen bonding: a potential strategy for more bioavailable inhibitors of neuronal nitric oxide synthase” (Bioorg Med Chem, 2012).

How the values were obtained:
[1] = molecular target: T1, Nitric oxide synthase 1 (Rattus norvegicus, UniProt P29476); test: Inhibition of rat nNOS expressed in HEK293T cells preincubated for 30 mins prior A23187-induced activation measured after 6 hrs by Griess assay; format: cell-based, HEK-293T
T1 sequence (P29476 whole entry): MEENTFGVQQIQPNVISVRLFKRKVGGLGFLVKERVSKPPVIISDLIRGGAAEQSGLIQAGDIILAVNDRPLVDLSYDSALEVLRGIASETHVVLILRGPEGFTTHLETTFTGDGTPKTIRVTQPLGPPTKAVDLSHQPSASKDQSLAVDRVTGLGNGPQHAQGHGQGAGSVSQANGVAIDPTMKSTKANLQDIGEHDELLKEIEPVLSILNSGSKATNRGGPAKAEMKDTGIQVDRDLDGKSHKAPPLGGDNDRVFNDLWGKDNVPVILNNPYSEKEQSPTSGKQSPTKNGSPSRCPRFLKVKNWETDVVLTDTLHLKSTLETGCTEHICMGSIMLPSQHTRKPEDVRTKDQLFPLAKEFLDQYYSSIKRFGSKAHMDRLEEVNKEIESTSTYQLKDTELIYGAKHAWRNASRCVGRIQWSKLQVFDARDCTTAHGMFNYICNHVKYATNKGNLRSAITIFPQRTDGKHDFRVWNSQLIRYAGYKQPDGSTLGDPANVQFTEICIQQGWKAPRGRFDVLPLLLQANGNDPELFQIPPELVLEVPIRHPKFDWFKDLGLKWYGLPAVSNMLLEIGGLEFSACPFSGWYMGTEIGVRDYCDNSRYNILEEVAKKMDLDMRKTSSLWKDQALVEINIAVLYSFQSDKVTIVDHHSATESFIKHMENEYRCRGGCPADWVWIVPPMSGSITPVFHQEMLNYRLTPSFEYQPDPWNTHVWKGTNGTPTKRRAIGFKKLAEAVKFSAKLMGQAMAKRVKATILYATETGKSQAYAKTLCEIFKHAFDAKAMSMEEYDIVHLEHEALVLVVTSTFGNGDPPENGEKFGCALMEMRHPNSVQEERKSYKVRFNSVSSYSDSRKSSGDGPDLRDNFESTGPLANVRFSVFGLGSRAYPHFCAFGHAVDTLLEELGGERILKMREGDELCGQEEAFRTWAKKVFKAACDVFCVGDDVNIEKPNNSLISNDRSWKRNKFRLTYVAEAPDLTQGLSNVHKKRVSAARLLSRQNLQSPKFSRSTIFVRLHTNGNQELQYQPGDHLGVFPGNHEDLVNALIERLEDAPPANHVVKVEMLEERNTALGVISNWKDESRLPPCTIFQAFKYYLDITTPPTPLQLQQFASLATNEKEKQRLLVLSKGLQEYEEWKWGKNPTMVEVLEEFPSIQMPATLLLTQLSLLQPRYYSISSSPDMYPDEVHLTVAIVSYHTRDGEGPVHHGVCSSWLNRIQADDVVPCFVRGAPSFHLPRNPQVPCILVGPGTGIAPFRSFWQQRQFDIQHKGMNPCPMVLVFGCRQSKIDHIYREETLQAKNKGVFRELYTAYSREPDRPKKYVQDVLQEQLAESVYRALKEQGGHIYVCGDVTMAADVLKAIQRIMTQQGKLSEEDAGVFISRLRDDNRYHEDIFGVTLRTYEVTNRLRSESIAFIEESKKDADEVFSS

[2] = Selectivity ratio of Ki for bovine eNOS to Ki for rat nNOS
[3] = Selectivity ratio of Ki for mouse iNOS to Ki for rat nNOS
[4] = molecular target: T1, Nitric oxide synthase 1; test: Inhibition of recombinant rat nNOS expressed in Escherichia coli by hemoglobin capture assay

SMILES	IC50 [1] [µM]	Ratio Ki [2]	Ratio Ki [3]	IC50 [4] [nM]
COc1ccccc1CNCCO[C@@H]1CNC[C@@H]1Cc1cc(C)cc(N)n1	22	93	139	
Cc1cc(C)nc(N)c1	25			50
Cc1cc(N)nc(C[C@H]2CNC[C@H]2OCCNCc2ccco2)c1	100	169	92	

Further compounds by falling IC50 [1], results first:

IC50 [1] [µM]	Ratio Ki [2]	Ratio Ki [3]	IC50 [4] [nM]	SMILES
43	93	143		Cc1cc(N)nc(C[C@H]2CNC[C@H]2OCCNCc2ccccc2O)c1
11	98	105		Cc1cc(N)nc(C[C@H]2CNC[C@H]2OCCNCc2ccccc2F)c1
